# PubChem BioAssay (NCI)
#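 All cell lines were grown in 96-well plates and treated with compound for 48 hours. GI50: concentration for 50% inhibition of growth. TGI: concentration producing complete growth inhibition.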
# Key:
# Test in all cases: NCI-60 cell line screen, 48 h
# 786-0 renal = test system: 786-0 renal
# A498 renal = test system: A498 renal
# A549 NSCLC = test system: A549 NSCLC
# ACHN renal = test system: ACHN renal
# BT-549 breast = test system: BT-549 breast
# CAKI-1 renal = test system: CAKI-1 renal
# COLO 205 colon = test system: COLO 205 colon
# HCC-2998 colon = test system: HCC-2998 colon
# HCT-116 colon = test system: HCT-116 colon
# HCT-15 colon = test system: HCT-15 colon
# HL-60(TB) leukemia = test system: HL-60(TB) leukemia
# HOP-62 NSCLC = test system: HOP-62 NSCLC
# HOP-92 NSCLC = test system: HOP-92 NSCLC
# HS 578T breast = test system: HS 578T breast
# HT29 colon = test system: HT29 colon
# IGROV1 ovarian = test system: IGROV1 ovarian
# K-562 leukemia = test system: K-562 leukemia
# KM12 colon = test system: KM12 colon
# LOX IMVI melanoma = test system: LOX IMVI melanoma
# M14 melanoma = test system: M14 melanoma
# MALME-3M melanoma = test system: MALME-3M melanoma
# MCF7 breast = test system: MCF7 breast
# MDA-MB-231 breast = test system: MDA-MB-231 breast
# MDA-MB-435 = test system: MDA-MB-435
# MOLT-4 leukemia = test system: MOLT-4 leukemia
# NCI-H23 lung = test system: NCI-H23 lung
# NCI-H460 lung = test system: NCI-H460 lung
# NCI-H522 lung = test system: NCI-H522 lung
# NCI/ADR-RES ovarian = test system: NCI/ADR-RES ovarian
# OVCAR-3 ovarian = test system: OVCAR-3 ovarian
# OVCAR-4 ovarian = test system: OVCAR-4 ovarian
# OVCAR-5 ovarian = test system: OVCAR-5 ovarian
# OVCAR-8 ovarian = test system: OVCAR-8 ovarian
# PC-3 prostate = test system: PC-3 prostate
# RPMI-8226 leukemia = test system: RPMI-8226 leukemia
# RXF 393 renal = test system: RXF 393 renal
# SF-268 CNS = test system: SF-268 CNS
# SF-539 CNS = test system: SF-539 CNS
# SK-MEL-2 melanoma = test system: SK-MEL-2 melanoma
# SK-MEL-28 melanoma = test system: SK-MEL-28 melanoma
# SK-MEL-5 melanoma = test system: SK-MEL-5 melanoma
# SK-OV-3 ovarian = test system: SK-OV-3 ovarian
# SN12C renal = test system: SN12C renal
# SNB-19 CNS = test system: SNB-19 CNS
# SR leukemia = test system: SR leukemia
# SW-620 colon = test system: SW-620 colon
# T-47D breast = test system: T-47D breast
# TK-10 renal = test system: TK-10 renal
# U251 CNS = test system: U251 CNS
# UACC-257 melanoma = test system: UACC-257 melanoma
# UACC-62 melanoma = test system: UACC-62 melanoma
# UO-31 renal = test system: UO-31 renal
smiles,measurement,setting,value
COc1cc(C(=O)/C=C/c2cc(-c3cc(OC)c(OC)c(OC)c3)n[nH]2)cc(OC)c1OC,GI50,786-0 renal,1560 nM
same,TGI,786-0 renal,3.25 µM
same,GI50,A498 renal,1610 nM
same,TGI,A498 renal,3.59 µM
same,GI50,A549 NSCLC,2720 nM
same,TGI,A549 NSCLC,12.1 µM
same,GI50,ACHN renal,1620 nM
same,TGI,ACHN renal,3.01 µM
same,GI50,BT-549 breast,1570 nM
same,TGI,BT-549 breast,2960 nM
same,GI50,CAKI-1 renal,2580 nM
same,TGI,CAKI-1 renal,10.9 µM
same,GI50,COLO 205 colon,1750 nM
same,TGI,COLO 205 colon,3.13 µM
same,GI50,HCC-2998 colon,1830 nM
same,TGI,HCC-2998 colon,3.39 µM
same,GI50,HCT-116 colon,1310 nM
same,TGI,HCT-116 colon,2590 nM
same,GI50,HCT-15 colon,1500 nM
same,TGI,HCT-15 colon,3.29 µM
same,GI50,HL-60(TB) leukemia,1930 nM
same,TGI,HL-60(TB) leukemia,5.52 µM
same,GI50,HOP-62 NSCLC,1460 nM
same,TGI,HOP-62 NSCLC,2890 nM
same,GI50,HOP-92 NSCLC,186 nM
same,TGI,HOP-92 NSCLC,1020 nM
same,GI50,HS 578T breast,2680 nM
same,TGI,HS 578T breast,53.9 µM
same,GI50,HT29 colon,1790 nM
same,TGI,HT29 colon,3.37 µM
same,GI50,IGROV1 ovarian,3.14 µM
same,TGI,IGROV1 ovarian,10.2 µM
same,GI50,K-562 leukemia,2960 nM
same,TGI,K-562 leukemia,> 100 µM
same,GI50,KM12 colon,1490 nM
same,TGI,KM12 colon,2930 nM
same,GI50,LOX IMVI melanoma,1520 nM
same,TGI,LOX IMVI melanoma,2910 nM
same,GI50,M14 melanoma,1790 nM
same,TGI,M14 melanoma,3.32 µM
same,GI50,MALME-3M melanoma,1860 nM
same,TGI,MALME-3M melanoma,4.09 µM
same,GI50,MCF7 breast,646 nM
same,TGI,MCF7 breast,2070 nM
same,GI50,MDA-MB-231 breast,1520 nM
same,TGI,MDA-MB-231 breast,3.8 µM
same,GI50,MDA-MB-435,1490 nM
same,TGI,MDA-MB-435,2950 nM
same,GI50,MOLT-4 leukemia,2320 nM
same,TGI,MOLT-4 leukemia,8.95 µM
same,GI50,NCI-H23 lung,3.04 µM
same,TGI,NCI-H23 lung,9.9 µM
same,GI50,NCI-H460 lung,1890 nM
same,TGI,NCI-H460 lung,4.33 µM
same,GI50,NCI-H522 lung,521 nM
same,TGI,NCI-H522 lung,1700 nM
same,GI50,NCI/ADR-RES ovarian,3.47 µM
same,TGI,NCI/ADR-RES ovarian,21.4 µM
same,GI50,OVCAR-3 ovarian,1750 nM
same,TGI,OVCAR-3 ovarian,3.18 µM
same,GI50,OVCAR-4 ovarian,1450 nM
same,TGI,OVCAR-4 ovarian,2760 nM
same,GI50,OVCAR-5 ovarian,1640 nM
same,TGI,OVCAR-5 ovarian,3.12 µM
same,GI50,OVCAR-8 ovarian,1580 nM
same,TGI,OVCAR-8 ovarian,3.28 µM
same,GI50,PC-3 prostate,1470 nM
same,TGI,PC-3 prostate,3.29 µM
same,GI50,RPMI-8226 leukemia,318 nM
same,TGI,RPMI-8226 leukemia,2060 nM
same,GI50,RXF 393 renal,1260 nM
same,TGI,RXF 393 renal,2670 nM
same,GI50,SF-268 CNS,1940 nM
same,TGI,SF-268 CNS,4.58 µM
same,GI50,SF-539 CNS,1290 nM
same,TGI,SF-539 CNS,2830 nM
same,GI50,SK-MEL-2 melanoma,1960 nM
same,TGI,SK-MEL-2 melanoma,4.04 µM
same,GI50,SK-MEL-28 melanoma,1820 nM
same,TGI,SK-MEL-28 melanoma,3.33 µM
same,GI50,SK-MEL-5 melanoma,1570 nM
same,TGI,SK-MEL-5 melanoma,2940 nM
same,GI50,SK-OV-3 ovarian,3.2 µM
same,TGI,SK-OV-3 ovarian,11.1 µM
same,GI50,SN12C renal,1470 nM
same,TGI,SN12C renal,2970 nM
same,GI50,SNB-19 CNS,1660 nM
same,TGI,SNB-19 CNS,3.69 µM
same,GI50,SR leukemia,398 nM
same,TGI,SR leukemia,> 100 µM
same,GI50,SW-620 colon,1590 nM
same,TGI,SW-620 colon,3.08 µM
same,GI50,T-47D breast,1130 nM
same,TGI,T-47D breast,2570 nM
same,GI50,TK-10 renal,1460 nM
same,TGI,TK-10 renal,2800 nM
same,GI50,U251 CNS,1540 nM
same,TGI,U251 CNS,2960 nM
same,GI50,UACC-257 melanoma,1570 nM
same,TGI,UACC-257 melanoma,2990 nM
same,GI50,UACC-62 melanoma,1780 nM
same,TGI,UACC-62 melanoma,3.68 µM
same,GI50,UO-31 renal,1190 nM
same,TGI,UO-31 renal,2480 nM
